According to patent publication US20020173468A1, “MODIFIED CYTOSTATIC AGENTS” (priority 1996, published 2002):
Counter-ions that a name gives are not always drawn.

Key:
Type in all cases: cell-based
[1] = test system: SW 480 human colonic tumour cell line; assay: Growth inhibition test (MTT) for cytotoxic properties, SW 480; conditions: SW 480 cells
Protocol: (§1) 1. Growth Inhibition Test for the Determination of Cytotoxic Properties
(§2) They were then trypsinized and taken up in RPMI plus 10% FCS to give a cell count of 50,000 cells/ml. 100 μl of cell suspension/well were added to a 96 microwell plate and incubated for 1 day at 37° C. in a CO2 incubator. A further 100 μl of RPMI medium and 1 μl of DMSO were then added with the test substances. The growth was checked after day 3 and day 6. To do this, 40 μl of MTT solution (3-(4,5-dimethylthiazol-2-yl)-2,5-diphenyl-tetrazolin bromide) were added to each microwell at a starting concentration of 5 mg/ml of H2O. Incubation was carried out at 37° C. for 5 hours in the CO2 incubator. The medium was then aspirated and 100 μl of i-propanol/well were added. After shaking for 30 min with 100 μl of H2O, the extinction was measured at 540 nm using a Titertek Multiskan MCC/340 (flow).
(§3) The cytotoxic action is indicated in Table 1 as an IC50 value in each case for the SW 480 and HT 29 and B16F10 cell lines: […]

[2] = test system: HT 29 human colonic tumour cell line; assay: Growth inhibition test (MTT) for cytotoxic properties, HT 29; conditions: HT 29 cells
Protocol: as §1, §2, §3

[3] = test system: B16F10 mouse melanoma cell line; assay: Growth inhibition test (MTT) for cytotoxic properties, B16F10; conditions: B16F10 cells
Protocol: as §1, §2, §3

[4] = test system: mouse bone marrow stem cells; assay: Inhibition of the CSF-induced proliferation of mouse bone marrow stem cells (colony formation); conditions: recombinant murine GM-CSF, 7 days; for IC50: Mus musculus, 168 h
Protocol: 2. Haematopoietic Activity of Conjugates in Comparison with the Basic Active Compound
Bone marrow cells were rinsed from mouse femurs. 10^5 cells were incubated in McCoy 5A medium (0.3% agar) together with recombinant murine GM-CSF (Genzyme; stem cell colony formation) and the substances (10^−4 to 100 μg/ml) at 37° C. and 7% CO2. 7 days later, the colonies ([…]50 cells) and clusters (17-50 cells) were counted.

SMILES | IC50 [1] | IC50 [2] | IC50 [3] | IC50, inhibition of the CSF-induced proliferation of mouse bone marrow stem cells [4] | IC50 [4]
Cl.NCCCCC(NC(=S)Nc1ccc(O)cc1)C(=O)NC1C=CCC2CN(c3c(F)cc4c(=O)c(C(=O)O)cn(C5CC5)c4c3Cl)CC21 (racemic) [2.4), N-[N^α-(4-Hydroxy-phenylamino-thiocarbonyl)-lysyl]-quinolone-a, hydrochloride] | 800 nM | 900 nM | 1000 nM | 60.0 ng/mL | 
N[C@@H]1C=CC[C@@H]2CN(c3c(F)cc4c(=O)c(C(=O)O)cn(C5CC5)c4c3Cl)C[C@@H]21 (racemic) [Quinolone-a, 7-[(3aRS, 4RS, 7aSR)-4-amino-1,3,3a,4,7,7a-hexahydro-iso-indol-2-yl]-8-chloro-1-cyclopropyl-6-fluoro-1,4-dihydro-4-oxo-3-quinolinecarboxylic acid, reference compound] |  |  |  |  | 0.2 ng/mL
CCC1(OC(=O)C(C)NC(=O)C(CCCCNC(=S)Nc2ccc(O)cc2)NC(=S)Nc2ccc(O)cc2)C(=O)OCc2c1cc1n(c2=O)Cc2cc3ccccc3nc2-1 (stereo not drawn) [4.9), 20-O-[N^α,N^ε-bis-(4-Hydroxy-phenylamino-thiocarbonyl)-lysyl-alanyl]-camptothecin] | 20 nM | 15 nM | 200 nM | 22 ng/mL | 
CCC1(OC(=O)[C@@H](C)NC(=O)C(CCCCNC(=S)Nc2ccc(O)cc2)NC(=S)Nc2ccc(O)cc2)C(=O)OCc2c1cc1n(c2=O)Cc2cc3ccccc3nc2-1 (stereo partly drawn) [4.10), 20-O-[N^α,N^ε-bis-(4-Hydroxy-phenylamino-thiocarbonyl)-lysyl-D-alanyl]-camptothecin] | 20 nM | 10 nM | 200 nM |  | 
CCC1(OC(=O)[C@H](Cc2ccccc2)NC(=O)[C@H](CCCCNC(=S)Nc2ccc(O)cc2)NC(=S)Nc2ccc(O)cc2)C(=O)OCc2c1cc1n(c2=O)Cc2cc3ccccc3nc2-1 (stereo partly drawn) [4.11), 20-O-[N^α,N^ε-bis-(4-Hydroxy-phenylamino-thiocarbonyl)-lysyl-phenylalanyl]-camptothecin] | 60 nM | 30 nM | 200 nM |  | 
CC[C@@]1(OC(=O)[C@@H](NC(=O)[C@H](CCCCN)NC(=S)Nc2cccc(O)c2)C(C)C)C(=O)OCc2c1cc1n(c2=O)Cc2cc3ccccc3nc2-1 [4.12), 20-O-[N^α-(3-Hydroxy-phenylamino-thiocarbonyl)-lysyl-valyl]-camptothecin, hydrochloride] | 40 nM | 30 nM | 200 nM |  | 
CC[C@@]1(OC(=O)C(NC(=O)C(CCCCN)NC(=S)Nc2ccccc2O)C(C)C)C(=O)OCc2c1cc1n(c2=O)Cc2cc3ccccc3nc2-1 (stereo partly drawn) [4.13), 20-O-[N^α-(2-Hydroxy-phenylamino-thiocarbonyl)-lysyl-valyl]-camptothecin, hydrochloride] | 60 nM | 40 nM | 200 nM |  | 
CCC1(OC(=O)[C@@H](NC(=O)[C@H](CCCCN)NC(=S)Nc2ccc(OC)cc2)C(C)C)C(=O)OCc2c1cc1n(c2=O)Cc2cc3ccccc3nc2-1 (stereo partly drawn) [4.14), 20-O-[N^α-(4-Methoxy-phenylamino-thiocarbonyl)-lysyl-valyl]-camptothecin, hydrochloride] | 160 nM | 75 nM | 750 nM |  | 
CCC1(OC(=O)C(NC(=O)C(CCCCN)NC(=S)Nc2cccc(OC)c2)C(C)C)C(=O)OCc2c1cc1n(c2=O)Cc2cc3ccccc3nc2-1 (stereo not drawn) [4.15), 20-O-[N^α-(3-Methoxy-phenylamino-thiocarbonyl)-lysyl-valyl]-camptothecin, hydrochloride] | 90 nM | 60 nM | 200 nM |  | 
CCC1(OC(=O)C(NC(=O)C(CCCCN)NC(=S)Nc2ccc([N+](=O)[O-])cc2)C(C)C)C(=O)OCc2c1cc1n(c2=O)Cc2cc3ccccc3nc2-1 (stereo not drawn) [4.16), 20-O-[N^α-(4-Nitro-phenylamino-thiocarbonyl)-lysyl-valyl]-camptothecin, hydrochloride] | 150 nM | 120 nM | 600 nM |  | 
CCC1(OC(=O)C(NC(=O)C(CCCCN)NC(=S)Nc2cccc([N+](=O)[O-])c2)C(C)C)C(=O)OCc2c1cc1n(c2=O)Cc2cc3ccccc3nc2-1 (stereo not drawn) [4.17), 20-O-[N^α-(3-Nitro-phenylamino-thiocarbonyl)-lysyl-valyl]-camptothecin, hydrochloride] | 300 nM | 170 nM | 800 nM |  | 
CCC1(OC(=O)C(NC(=O)C(CCCCN)NC(=S)Nc2ccc(N)cc2)C(C)C)C(=O)OCc2c1cc1n(c2=O)Cc2cc3ccccc3nc2-1 (stereo not drawn) [4.18), 20-O-[N^α-(4-Amino-phenylamino-thiocarbonyl)-lysyl-valyl]-camptothecin, hydrochloride] | 300 nM | 120 nM | 400 nM |  | 
CCC1(OC(=O)C(NC(=O)C(Cc2c[nH]cn2)NC(=S)Nc2ccc(O)cc2)C(C)C)C(=O)OCc2c1cc1n(c2=O)Cc2cc3ccccc3nc2-1 (stereo not drawn) [4.19), 20-O-[N^α-(4-Hydroxy-phenylamino-thiocarbonyl)-histidyl-valyl]-camptothecin, hydrochloride] | 80 nM | 40 nM | 400 nM |  | 
CCC1(OC(=O)C(CC(C)C)NC(=O)C(CCCCN)NC(=S)Nc2ccc(O)cc2)C(=O)OCc2c1cc1n(c2=O)Cc2cc3ccccc3nc2-1 (stereo not drawn) [4.20), 20-O-[N^α-(4-Hydroxy-phenylamino-thiocarbonyl)-lysyl-leucyl]-camptothecin, hydrochloride] | 70 nM | 60 nM | 300 nM |  | 
CCC1(OC(=O)C(NC(=O)C(CCCCNC(=S)Nc2ccc(O)cc2)NC(=S)Nc2ccc(O)cc2)C(C)C)C(=O)OCc2c1cc1n(c2=O)Cc2cc3ccccc3nc2-1 (stereo not drawn) [4.21), 20-O-{[N^α-N^ε-bis-(4-Hydroxy-phenylamino-thiocarbonyl)]-lysyl-valyl}-camptothecin, hydrochloride] | 700 nM | 300 nM | 3000 nM |  | 
CC[C@@]1(OC(=O)C(CC(=O)O)NC(=O)C(CCCCNC(=S)Nc2ccc(O)cc2)NC(=S)Nc2ccc(O)cc2)C(=O)OCc2c1cc1n(c2=O)Cc2cc3ccccc3nc2-1 (stereo partly drawn) [4.22), 20-O-[N^α,N^ε-bis-(4-Hydroxy-phenylamino-thiocarbonyl)-lysyl-aspartyl]-camptothecin, sodium salt] | 40 nM | 40 nM | 100 nM |  | 
CCC1(OC(=O)C(CO)NC(=O)C(CCCCNC(=S)Nc2ccc(O)cc2)NC(=S)Nc2ccc(O)cc2)C(=O)OCc2c1cc1n(c2=O)Cc2cc3ccccc3nc2-1 (stereo not drawn) [4.23), 20-O-[N^α,N^ε-bis-(4-Hydroxy-phenylamino-thiocarbonyl)-lysyl-seryl]-camptothecin] | 80 nM | 70 nM | 150 nM |  | 
CCc1c2c(nc3ccccc13)-c1cc3c(c(=O)n1C2)COC(=O)C3(CC)OC(=O)C(C)NC(=O)C(CCCCNC(=S)Nc1ccc(O)cc1)NC(=S)Nc1ccc(O)cc1 (stereo not drawn) [5.1), 7-Ethyl-20-O-[N^α,N^ε-bis-(4-hydroxy-phenylamino-thiocarbonyl)-lysyl-alanyl]-camptothecin] | 25 nM | 20 nM | 50 nM |  | 
CCc1c2c(nc3ccccc13)-c1cc3c(c(=O)n1C2)COC(=O)C3(CC)OC(=O)C(NC(=O)C(CCCCN)NC(=S)Nc1ccc(O)cc1)C(C)C (stereo not drawn) [5.2), 7-Ethyl-20-O-[N^α-(4-hydroxy-phenylamino-thiocarbonyl)-lysyl-valyl]-camptothecin, hydrochloride] | 500 nM | 300 nM | 900 nM |  | 
CCC1(OC(=O)[C@H](CC(C)C)NC(=O)[C@H](CCCCN)NC(=S)Nc2ccc(O)cc2)C(=O)OCc2c1cc1n(c2=O)Cc2cc3cc4c(cc3nc2-1)OCO4 (stereo partly drawn) [6), 10,11-(Methylenedioxy)-20-O-[N^α-(4-hydroxy-phenylaminothio-carbonyl)-lysyl-leucyl]-camptothecin, hydrochloride] | 5 nM | 3 nM | 15 nM |  | 
CCC1(O)C(=O)OCc2c1cc1n(c2=O)Cc2c-1nc1ccccc1c2COC(=O)[C@@H](NC(=O)[C@H](CCCCN)NC(=S)Nc1ccc(O)cc1)C(C)C (stereo partly drawn) [7), 7-[N^α-(4-Hydroxy-phenylamino-thiocarbonyl)-lysyl-valyloxymethyl]-camptothecin, hydrochloride] | 60 nM | 80 nM | 1000 nM |  | 
CCc1c2c(nc3ccc(O)cc13)-c1cc3c(c(=O)n1C2)COC(=O)C3(CC)OC(=O)[C@@H](NC(=O)[C@H](CCCCN)NC(=S)Nc1ccc(O)cc1)C(C)C (stereo partly drawn) [8), 7-Ethyl-10-hydroxy-20-O-[N^α-(4-hydroxy-phenylamino-thiocarbonyl)-lysyl-valyl]-camptothecin, hydrochloride] | 150 nM | 200 nM | 3000 nM |  | 
CC[C@@]1(O)C(=O)OCc2c1cc1n(c2=O)Cc2cc3ccccc3nc2-1 [Camptothecin, 20(S)-Camptothecin, reference compound] |  |  |  |  | 0.4 ng/mL
